Where “and” joins values, the source holds several entries; their conditions need not be identical. Equal entries are not always repeated.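 Growth conditions: 96-well plates. Treatment: test compound, 48 hours, 5 concentrations. Analysis: linear interpolation between bracketing concentrations; unreached endpoints set to highest concentration. Abbreviation: GI50, concentration required for 50% inhibition of growth. TGI marks complete inhibition of growth.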
Columns and labels:
Experiment in all cases: NCI-60 cell line screen, 48 h
MDA-MB-435 = tested on: MDA-MB-435
NCI-H226 lung = tested on: NCI-H226 lung
HOP-92 NSCLC = tested on: HOP-92 NSCLC
COLO 205 colon = tested on: COLO 205 colon
K-562 leukemia = tested on: K-562 leukemia
SNB-19 CNS = tested on: SNB-19 CNS
M14 melanoma = tested on: M14 melanoma
MALME-3M melanoma = tested on: MALME-3M melanoma
UO-31 renal = tested on: UO-31 renal
HOP-62 NSCLC = tested on: HOP-62 NSCLC

Compound	GI50 (MDA-MB-435)	TGI (MDA-MB-435)	GI50 (NCI-H226 lung)	TGI (NCI-H226 lung) [nM]	GI50 (HOP-92 NSCLC) [nM]	TGI (HOP-92 NSCLC) [nM]	GI50 (COLO 205 colon)	TGI (COLO 205 colon)	GI50 (K-562 leukemia)	TGI (K-562 leukemia) [nM]	GI50 (SNB-19 CNS)	TGI (SNB-19 CNS) [nM]	GI50 (M14 melanoma)	TGI (M14 melanoma) [nM]	GI50 (MALME-3M melanoma)	TGI (MALME-3M melanoma)	GI50 (UO-31 renal)	TGI (UO-31 renal)	GI50 (HOP-62 NSCLC)	TGI (HOP-62 NSCLC) [nM]
CN1C(=O)C(N=Nc2ccc([N+](=O)[O-])cc2)SC1=S (stereo not drawn)	3860 nM and 16100 nM	32300 nM and 77100 nM	21000 nM and 18000 nM	> 100000	1710	12300	4000 nM and 10000 nM	18000 nM and 23000 nM	625 nM and 2170 nM	> 100000	6620 nM and 11000 nM	> 100000	7610 nM and 19200 nM	> 100000	3260 nM and 18500 nM	19500 nM and > 100000 nM	1260 nM and 3550 nM	8820 nM and 74700 nM	9550 nM and 12200 nM	> 100000
C=C(C)COc1ccc2c(c1)CCC1C2CCC2(C)C(=O)/C(=N/O)CC12 (stereo not drawn)	–	7610 nM	–	26600	–	10400	–	14400 nM	–	9960	–	25400	–	14400	–	29100 nM	–	15300 nM	–	21200
COc1cccc2nc(Nc3cccc(NC(=O)c4ccc(N5CCN(C)CC5)c(C(F)(F)F)c4)c3)ccc12	878 nM	1730 nM	2260 nM	8610	854	4030	909 nM	1830 nM	1100 nM	3680	1110 nM	2290	899 nM	1950	816 nM	1620 nM	734 nM	1490 nM	856 nM	1740
CCCCCCCCCCCCCCCC(=O)NS(=O)(=O)OC[C@H]1O[C@@H](n2cnc3c(N)ncnc32)[C@H](O)[C@@H]1O	210 nM	551 nM	< 24.5 nM	< 49.7	< 24	–	< 15.7 nM	< 23.8 nM	1650 nM	10000	19.1 nM	157	632 nM	2170	690 nM	2220 nM	339 nM	1330 nM	< 19.8 nM	–
CC(C)C[C@H](NC(=O)[C@@H](Cc1ccccc1)n1ccc(Nc2ccccc2)cc1=O)B(O)O	155 nM	340 nM	164 nM	348	386	2450	545 nM	13100 nM	477 nM	> 100000	714 nM	> 100000	278 nM	1910	382 nM	2480 nM	561 nM	3130 nM	1740 nM	7040
COc1ccc(-c2nc3sccn3c2-c2ccnc(NCCNS(=O)(=O)c3ccc(C(F)(F)F)cc3)n2)cc1	1440 nM	5880 nM	2420 nM	10300	153	2510	3290 nM	> 100000 nM	411 nM	> 100000	3770 nM	> 100000	690 nM	3250	2350 nM	5220 nM	1090 nM	> 100000 nM	13700 nM	> 100000
